Activity calls are given as the source filed them. The rule behind the calls is not given here.
System: Rattus norvegicus
Experiment: Anti-implantation activity in po dosed rat
Format: functional, organism-based

In the case of C[C@H]1[C@H](c2ccc(O)cc2)c2cc(O)c(O)cc2C[C@H]1C, the Activity is reported as “Active”.
For C[C@H]1[C@H](c2ccc(O)c(O)c2)c2cc(O)c(O)cc2C[C@H]1C, the Activity was “inactive”.
